Data reported in patent publication US20240197700A1, “Methods and Compositions for Treating Lysosomal Storage Disorders” (Sanford Health, priority 2021, published 2024).

Columns and labels:
TFEB = TFEB nuclear translocation time course in transfected N2A cells; format: cell-based, mouse; details: for TFEB nuclear translocation: N2A cells; for TFEB nuclear translocation (i.e., activation): overall statement, GFP-TFEB transfected N2A cells, acute treatment
Method: FIG. 15(A-B). Treatment with LM11A-31 stimulates TFEB nuclear translocation as monitored via time course study. For (A), wild type neuro 2A […] neuroblastoma (N2A) cells were plated and transfected with a pEGFP-N1-TFEB plasmid for a 24-hour incubation. Cells were dyed and imaged on the CellInsight™ CX7 High-Content Screening Platform (CX7) then treated with media containing vehicle or LM11A-31 (100 nM, 1 μM). Cells were imaged every 30 minutes for three hours on the CX7 with incubation between imaging sessions, and results were quantified. The statistics were analyzed using Graphpad Prism™. One-way ANOVA. Mean S.E.M. Dunnett's multiple comparisons test compared to the vehicle treated group. *p<0.05, **p<0.01, ***p<0.001, ****p<0.0001. Quantification of TFEB nuclear translocation after treatment with vehicle or LM11A-31 (100 nM, 1 μM). […] (B) Since LM11A-31 increases the expression of lysosomal genes including the PPT1 and TPP1, and Cathepsin D enzymes, we asked whether LM11A-31 increases the overall activity levels of these enzymes in cellulo. Wild type (WT) and mutant cells were treated with vehicle or LM11A-31 (100 nM). Cells were plated on day 0 and dosed with drug-containing media on DIV3 and DIV5. Cells were lysed, and protein quantification and enzyme activity assay were performed on DIV7. Data was analyzed with GraphPad Prism™. Two-way ANOVA. Mean S.E.M. Tukey's multiple comparisons test. *p<0.05, **p<0.01, ***p<0.001. ****p<0.0001.
(§1) Treatment with AF38469 stimulates TFEB nuclear translocation as monitored via time course study. For (A) and (B), wild type neuro 2A rat neuroblastoma (N2A) cells were plated and transfected with a pEGFP-N1-TFEB plasmid for a 24-hour incubation. Cells were treated with vehicle or AF38469 (40 nM, 400 nM) for three hours then immunocytochemistry was performed with anti-GFP (Abcam, ab13970) and 4′, -diamidino-2-phenylindole-dihydrochloride (DAPI). Cells were imaged on the Nikon AIR confocal microscope. For (C), wild type N2A cells were plated and transfected with a pEGFP-N1-TFEB plasmid for a 24-hour incubation. Cells were dyed and imaged on the CellInsight™ CX7 High-Content Screening Platform (CX7) then treated with media containing vehicle or AF38469 (40 nM, 400 nM). Cells were imaged every 30 minutes for three hours on the CX7 with incubation between imaging sessions, and results were quantified. The statistics were analyzed using Graphpad Prism™. One-way ANOVA. Mean±S.E.M. Dunnett's multiple comparisons test compared to the vehicle treated group. *p<0.05,**p<0.01, ***p<0.001, ****p<0.0001. […] TFEB is a transcription factor that stimulates transcription of genes that are necessary for lysosomal biogenesis and function. Thus, increased TFEB nuclear translocation is expected to stimulate lysosomal biogenesis and function.

TFE3 = TFE3 nuclear translocation time course in transfected N2A cells; format: cell-based, mouse; details: for TFE3 nuclear translocation (i.e., activation): overall statement, GFP-TFE3 transfected N2A cells, acute treatment
Method: as §1, with “stimulates TFE3” for “stimulates TFEB”, “type N2A” for “type neuro 2A rat neuroblastoma (N2A)”, “a pEGFP-N1-TFE3” for “a pEGFP-N1-TFEB”, “group. *p<0.05, **p<0.01,” for “group. *p<0.05,**p<0.01,”, “increased TFE3” for “increased TFEB”
Since LM11A-31 improves lysosomal health and function across diverse cell models of lysosomal storage disorders, we asked whether the drug could be activating transcriptional networks that regulate lysosomal function. The transcription factors TFEB and TFE3 are master regulators of lysosomal biogenesis and function. We hypothesized that LM11A-31 could exert benefits by modulating the nuclear translocation of TFEB and/or TFE3. We tested this in an in vitro system in which GFP fusions of TFEB or TFE3 are expressed and monitored with live imaging (FIG. 15A).

SMILES	TFEB nuclear translocation (TFEB; 40 nM and 400 nM, 180 minutes of incubation, vs vehicle)	TFEB nuclear translocation (TFEB; 40 nM, 90 minutes of incubation, vs vehicle)	TFEB nuclear translocation (i.e., activation) (TFEB)	TFE3 nuclear translocation (TFE3; 40 nM and 400 nM, 90 minutes of incubation, N2A cells, vs vehicle)	TFE3 nuclear translocation (TFE3; 40 nM, 180 minutes of incubation, N2A cells)	TFE3 nuclear translocation (TFE3; 400 nM, 180 minutes of incubation, N2A cells)	TFE3 nuclear translocation (i.e., activation) (TFE3)	TFEB nuclear translocation (TFEB; 100 nM and 1 μM, 180 minutes of incubation)	TFEB nuclear translocation (TFEB; 100 nM, 90 minutes of incubation)	TFE3 nuclear translocation (TFE3; 100 nM and 1 μM, 90 minutes of incubation)
Cc1cccc(NC(=O)c2ccc(C(F)(F)F)cc2C(=O)O)n1 [AF38469, 2-((6-methylpyridin-2-yl)carbamoyl)-5-(trifluoromethyl)benzoic acid]	significant increase	significant increase	stimulated	significant increase	return to baseline	trend towards increased nuclear translocation	stimulates			
CC[C@H](C)[C@H](N)C(=O)NCCN1CCOCC1 [LM11A-31, N-[2-(morpholin-4-yl)ethyl]-L-isoleucinamide]			stimulated				stimulated	increasing trend continued	significant increase	significant increase
